Some test systems named below: 786-0 renal; COLO 205 colon; HOP-92 NSCLC; RXF 393 renal; TK-10 renal; UACC-257 melanoma; A498 renal; NCI/ADR-RES ovarian; T-47D breast; BT-549 breast.
Holding throughout (assay): NCI tumour cell line growth inhibition, 48 h

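Values below derive from 48-hour exposures of cells grown in 96-well plates, with endpoints linearly interpolated between the two concentrations bracketing the appropriate inhibition level. The concentration for full growth arrest is given as TGI.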

`O=C(O)CCCl`: the TGI with 786-0 renal, in the test with COLO 205 colon, in the test with HOP-92 NSCLC, with RXF 393 renal, with TK-10 renal and with UACC-257 melanoma was over 5000 µM throughout.
Take `C=C1C(=O)OC2/C=C(\C)C(OC(C)=O)C3OC3C(C)(O)CC(OC(=O)/C(C)=C/C)C12` (stereo not given): the TGI in the test on 786-0 renal is 16.4 µM; in the test on A498 renal, 32.1 µM; in the test on COLO 205 colon, 12.9 µM; in the test on HOP-92 NSCLC, 23.5 µM; in the test on RXF 393 renal it was 19.3 µM; in the test on TK-10 renal, 24.6 µM. The same compound came in with a TGI with UACC-257 melanoma of 28.8 µM.
`COC(=O)c1c2c(cc3c1CC1(Cc4ccccc4C1=O)C3)CCC2` (stereo not given): the TGI in the test on 786-0 renal was over 100 µM; in the test with A498 renal, over 100 µM; in the test on COLO 205 colon it was 23.4 µM; with HOP-92 NSCLC, over 100 µM; in the test on NCI/ADR-RES ovarian, 79.3 µM; in the test with RXF 393 renal it was 98.4 µM. The TGI in the test on T-47D breast, with TK-10 renal and in the test with UACC-257 melanoma was over 100 µM throughout.
`CCC(C)[C@@H](NCc1ccccc1)[C@H](OCc1ccccc1)[C@@H]1COC(C)(C)O1` (stereo not given in full): the TGI with 786-0 renal came to 46.3 µM; with COLO 205 colon, 36.6 µM; with HOP-92 NSCLC it was 31.4 µM; in the test on NCI/ADR-RES ovarian, 55.3 µM; in the test with TK-10 renal it was 32.7 µM; in the test with UACC-257 melanoma, 38.1 µM.
On to `CC1(C)O[C@H]2Cn3c(c(C#N)c4ccccc43)[C@H]2O1`, for which the TGI in the test with 786-0 renal, with BT-549 breast, in the test on COLO 205 colon, in the test with HOP-92 NSCLC, with NCI/ADR-RES ovarian and in the test on T-47D breast was over 100 µM throughout. Further, the TGI with TK-10 renal was over 100 µM.
As to `O=C(CSc1nnc(-c2ccc(N=Cc3ccc(Cl)cc3)cc2)o1)Nc1ccccc1Cl`, the TGI with 786-0 renal, with COLO 205 colon, with RXF 393 renal, in the test on TK-10 renal and in the test with UACC-257 melanoma was over 100 µM each time.
In the case of `CC1=NN(c2nc(N)nc(-c3ccccc3S(N)(=O)=O)n2)C(C)(C)C1`, the TGI in the test on 786-0 renal was over 100 µM; in the test with A498 renal, 64.5 µM; in the test with HOP-92 NSCLC it was over 100 µM; in the test on NCI/ADR-RES ovarian, 52.5 µM; with RXF 393 renal it was over 100 µM; in the test on T-47D breast it was over 100 µM. In addition, the TGI in the test on TK-10 renal and with UACC-257 melanoma was over 100 µM throughout.
As to `COc1cccc2c1OC1c3ccccc3OCC1C2` (stereo not given), the TGI in the test with 786-0 renal, in the test on A498 renal, in the test with BT-549 breast, in the test on COLO 205 colon, in the test with NCI/ADR-RES ovarian and with T-47D breast was over 100 µM each time. Also, the TGI with TK-10 renal and in the test on UACC-257 melanoma was over 100 µM throughout.
`O=C(COc1ccc(OCC(=O)N2C(=O)CC(=O)N(c3ccccc3)C2=S)cc1)N1C(=O)CC(=O)N(c2ccccc2)C1=S`: the TGI in the test on 786-0 renal, in the test on A498 renal, with BT-549 breast, in the test on COLO 205 colon, in the test on HOP-92 NSCLC and in the test on NCI/ADR-RES ovarian was over 100 µM in each case. Moreover, the TGI with RXF 393 renal is 95 µM; in the test with TK-10 renal, over 100 µM; in the test on UACC-257 melanoma, over 100 µM.
As to `O=C1N[C@H]2c3c(Cl)sc(Cl)c3/C(=N/O)[C@H]2O1`, the TGI in the test with 786-0 renal, with A498 renal, in the test on BT-549 breast, with COLO 205 colon, with NCI/ADR-RES ovarian and in the test with RXF 393 renal was over 100 µM each time. In addition, the TGI in the test on T-47D breast, in the test on TK-10 renal and in the test with UACC-257 melanoma was over 100 µM throughout.
On to `S=c1sc2c(Cl)ncnc2n1-c1ccccc1`, for which the TGI in the test on 786-0 renal was 29.2 µM; in the test with A498 renal it was 30.9 µM; in the test on COLO 205 colon, 29 µM; in the test on HOP-92 NSCLC it was 34.3 µM; in the test with RXF 393 renal it was 28.9 µM; in the test with TK-10 renal it was 33.2 µM. For the same compound, in the test with UACC-257 melanoma, the TGI was 33.6 µM.
On to `COC(=O)N1CC2(CO)C3CC=C(C(=O)Nc4ccccc4Br)C2C1C3Br` (stereo not given), for which the TGI in the test on 786-0 renal, with A498 renal, in the test with COLO 205 colon, in the test on HOP-92 NSCLC, in the test on NCI/ADR-RES ovarian and with RXF 393 renal was over 50 µM in each case. For the same compound, the TGI in the test with T-47D breast, in the test with TK-10 renal and in the test with UACC-257 melanoma was over 50 µM throughout.
In the case of `CC1=NN(C(=O)CSc2nnc(SCC(=O)N3N=C(C)CC3(O)c3ccccc3)s2)C(O)(c2ccccc2)C1` (stereo not given), the TGI with 786-0 renal is over 100 µM; in the test with A498 renal, over 100 µM; with BT-549 breast, 47 µM; with COLO 205 colon it was over 100 µM; in the test on HOP-92 NSCLC, over 100 µM; with NCI/ADR-RES ovarian, 68.3 µM. Moreover, the TGI is 75.1 µM in the test with RXF 393 renal, over 100 µM in the test on TK-10 renal and over 100 µM in the test on UACC-257 melanoma.
Take `Cc1ccc(C)n1-c1ccccc1C1SCCCS1`: the TGI with 786-0 renal, in the test with A498 renal, with BT-549 breast, in the test with COLO 205 colon, in the test with HOP-92 NSCLC and in the test with NCI/ADR-RES ovarian was over 100 µM in each case. The TGI in the test on RXF 393 renal, with TK-10 renal and in the test on UACC-257 melanoma was over 100 µM each time.
Consider `C/C=C/[C@@]1(OC(=O)c2ccccc2)C[C@@H]2CCCC[C@@H]21`, for which the TGI in the test on 786-0 renal was 31.8 µM; in the test with BT-549 breast it was 28.2 µM; in the test on NCI/ADR-RES ovarian, 41.1 µM; in the test with T-47D breast, 36.5 µM; with TK-10 renal, 36 µM; in the test with UACC-257 melanoma, 34.1 µM.
With `Cc1c2cc[nH]c(C(F)(F)F)c2cc2c1nc1ccccc12`, the TGI was over 113 µM in the test with A498 renal; over 125 µM with COLO 205 colon; over 125 µM in the test with HOP-92 NSCLC; over 125 µM with NCI/ADR-RES ovarian; over 125 µM in the test with RXF 393 renal; over 125 µM in the test with UACC-257 melanoma.

The values are drawn from PubChem BioAssay (NCI).
